Patent US8778342B2, “Antibody therapy” (Immunomedics, Inc., priority 2002, dated 2014)
“Also recorded” adds a separate entry of the source.

Key:
[1] = test system: GW-39 human colorectal tumors; test: Survival in GW-39 intrapulmonary micrometastasis model in nude mice; details: for increase of median survival time: FIG. 18, single agent versus untreated
TT MTC xenografts = test: Chemotherapy of TT MTC xenografts in nude mice; format: in vivo, human; details: for Mean survival time: untreated control 4 weeks; for growth inhibition of TT xenografts, drug given individually: doses of FIG. 3
[2] = test system: TT (human medullary thyroid) tumor cells; format: in vivo; details: DTIC 75 μg/dose days 2, 3, 4, hMN-14 100 μg/dose from day 2; for mice with no palpable tumor at 7 weeks: 10 mice/group
TT tumors = test: Naked anti-CEA MAb alone on growth of TT tumors in nude mice; details: for tumors less than 0.5 cm^3: at day-37, 0.5 mg/mouse weekly x4, untreated 40%
[3] = target: T1, normal cross reactive antigen, NCA (Homo sapiens, UniProt P40199); details: Hansen et al., Cancer 71:3478 (1993); cited from earlier work
T1 sequence (P40199 35-320): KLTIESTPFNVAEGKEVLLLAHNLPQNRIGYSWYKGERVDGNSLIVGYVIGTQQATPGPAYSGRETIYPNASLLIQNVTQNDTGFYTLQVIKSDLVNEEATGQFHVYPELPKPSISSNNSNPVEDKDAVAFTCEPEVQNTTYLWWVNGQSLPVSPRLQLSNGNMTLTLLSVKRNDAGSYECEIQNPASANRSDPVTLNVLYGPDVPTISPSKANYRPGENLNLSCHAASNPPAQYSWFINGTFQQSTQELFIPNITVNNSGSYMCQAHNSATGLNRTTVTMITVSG

TT cells = test: Flow cytometry reactivity with TT cells
CEA = target: T2, CEA (Homo sapiens, UniProt P06731); details: Hansen et al., Cancer 71:3478 (1993); cited from earlier work
T2 sequence (P06731 35-676): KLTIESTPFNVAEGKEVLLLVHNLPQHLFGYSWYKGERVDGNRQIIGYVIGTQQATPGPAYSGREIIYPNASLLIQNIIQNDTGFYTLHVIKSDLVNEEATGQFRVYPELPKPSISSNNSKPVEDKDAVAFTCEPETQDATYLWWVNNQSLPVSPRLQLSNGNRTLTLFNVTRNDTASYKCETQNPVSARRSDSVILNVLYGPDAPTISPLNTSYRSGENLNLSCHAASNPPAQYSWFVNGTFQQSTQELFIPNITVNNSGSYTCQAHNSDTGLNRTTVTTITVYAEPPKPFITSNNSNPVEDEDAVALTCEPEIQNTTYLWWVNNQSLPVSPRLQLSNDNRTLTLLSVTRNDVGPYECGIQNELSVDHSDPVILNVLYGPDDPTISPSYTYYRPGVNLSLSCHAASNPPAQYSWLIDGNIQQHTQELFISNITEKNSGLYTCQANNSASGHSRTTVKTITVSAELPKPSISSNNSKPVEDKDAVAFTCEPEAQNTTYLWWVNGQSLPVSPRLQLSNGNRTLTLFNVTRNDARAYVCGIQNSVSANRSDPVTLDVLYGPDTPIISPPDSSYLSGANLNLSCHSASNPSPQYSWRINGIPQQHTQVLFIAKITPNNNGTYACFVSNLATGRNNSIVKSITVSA

meconium antigen = details: Hansen et al., Cancer 71:3478 (1993); cited from earlier work
[4] = FIG. 16 advanced colon cancer model, single agents

For `CCc1c2c(nc3ccc(OC(=O)N4CCC(N5CCCCC5)CC4)cc13)-c1cc3c(c(=O)n1C2)COC(=O)[C@]3(O)CC` [CPT-11, irinotecan], the median survival time ([1]; 10% GW-39 cell suspension, treatment from day 0, CPT-11 10% MTD (80 μg/d x 5 days), hMN14 100 μg/d, untreated 56 days) was 63 days, the median survival ([1]; FIG. 16 advanced colon cancer model, hMN-14 100 μg/day from day 0, CPT-11 60 μg/day over 5 days) was 63 days and the effect on survival [1, 4] was “only a modest effect”. For the same molecule, the median survival time ([1]; FIG. 17 reduced tumor burden model, 5% tumor cell suspension, dosages of Example 14) was 70 days, the “increase of median survival time” value ([1]; 5% tumor cell suspension) was 76% and the median survival ([1]; pretreatment study, CPT-11 on day 0, alone or co-treatment with hMN-14, untreated 35 days) was 63 days. The median survival ([1]; pretreatment study, CPT-11 on day 3, alone or after 3-day pretreatment with hMN-14, untreated 35 days) was 70 days.

For `CN(C)/N=N/c1[nH]cnc1C(N)=O` [DTIC, dacarbazine, reference compound], the Mean survival time (TT MTC xenografts) was 11 weeks, the “Mean tumor volumes at 7 weeks” value [2] was 0.284 ± 0.197 cm^3 and the “mice with no palpable tumor at 7 weeks” value [2] was 1/10.

For `O=P1(N(CCCl)CCCl)NCCCO1` (stereo not shown) [cyclophosphamide], the “growth inhibition of TT xenografts, drug given individually” value (“growth inhibition of TT xenografts” below) (TT MTC xenografts) was “significant growth inhibition”, the “Log rank analysis of survival versus the untreated group” value (TT MTC xenografts; individual drugs) was “significant difference” and the Mean survival time (TT MTC xenografts) was 8 weeks.

For `COc1cccc2c1C(=O)c1c(O)c3c(c(O)c1C2=O)C[C@@](O)(C(=O)CO)C[C@@H]3O[C@H]1C[C@H](N)[C@H](O)[C@H](C)O1` [doxorubicin], the “growth inhibition of TT xenografts” value (TT MTC xenografts) was “significant growth inhibition”.

For `CC[C@]1(O)C[C@H]2CN(CCc3c([nH]c4ccccc34)[C@@](C(=O)OC)(c3cc4c(cc3OC)N(C=O)[C@H]3[C@@](O)(C(=O)OC)[C@H](OC(C)=O)[C@]5(CC)C=CCN6CC[C@]43[C@@H]65)C2)C1` [vincristine], the “growth inhibition of TT xenografts” value (TT MTC xenografts) was “not”.

In the case of “hLL2: negative control humanized MAb, anti-CD22 [reference compound]”, the “tumors less than 0.5 cm^3” value (TT tumors) is reported as 29%.

With “hMN-14: humanized (CDR-grafted) Class III anti-CEA monoclonal antibody MN-14, naked” the “Mean tumor volumes at 7 weeks” value [2] was 0.899±0.545 cm^3, the “mice with no palpable tumor at 7 weeks” value [2] was 0/10 and the “delay / inhibition of tumor growth” value ([2]; nude mice) was “Significant delays in tumor growth; also recorded: significant effect on inhibiting tumor growth”. For the same molecule, the “mean tumor sizes versus untreated animals” value (TT tumors; 0.5 mg single i.v. injection eleven days post tumor cell injection) was “no significant differences”, the “tumor growth versus untreated group” value (TT tumors; 0.5 mg single i.v. injection on day-1 post tumor injection) was “significant growth delay” and the “inhibition of tumor size compared to the untreated animals” value (TT tumors; 0.5 mg single i.v. injection one day post tumor cell injection, between day-32 and day-60) was 64-70%. For the same molecule, the “tumors less than 0.5 cm^3” value (TT tumors) was 87%, the effect on survival [1, 4] was “No effect” and the effect on survival ([1]; FIG. 17 reduced tumor burden model, 5% tumor cell suspension) was “no apparent effect”. The “increase of median survival time” value ([1]; 5% tumor cell suspension) was 21% and the “efficacy on high (interferon-gamma induced) versus low CEA-expressing tumor cells” value ([1]; FIG. 21) was “improved efficacy”.

B1: murine MN-14: murine Class III anti-CEA MAb, reacting with CEA, unreactive with NCA and meconium antigen (antibody, listed as Mus sp., V domains shown)
VH: EVKLLESGGGLVQSGGSLKLSCAASGFDFTTYWMSWVRQAPGKGLEWIGEIHPDSSTINYAPSLKDKFIVSRDNAKNTLYLQMSKVRSEDTALYYCASLYFGFPWFAYWGQGTPVTVSA
VL: EIQLTQSHKMMSTSVGDRVSITCKASQDVGTSVAWYQQRPGQSPKLLIYWTSTRHTGVPDRFTGSVSGTDFTLTITNVQSEDLADYFCQQYSLYRSFGGGTKLEIK
modifications: constant regions
For B1, the “reactivity with NCA” value [3] is given as “unreactive”, the “reactivity with TT cells by flow cytometry” value (TT cells) is given as “react with TT cells” and the “reactivity with CEA” value (CEA) is given as “reacting with CEA”. The “reactivity with meconium antigen” value (meconium antigen) was “unreactive”.
